Data as given in US20110039721A1, “METHOD FOR PREDICTION ABOUT CARCINOGENICITY OF SUBSTANCE IN RODENT” (Chemicals Evaluation and Research Institute, priority 2007, published 2011).
Where two headings read alike, the source gives them in different places.

Experiments:
[1] = test system: mRNA expressed from the genes (A) to (D) in rat liver; test: Behavior of genes (mRNA expression level, oligo-DNA microarray) in rat liver after 28-day oral administration; type: in vivo; conditions: for Behavior of gene caused by administration of chemical substance, Gene No. 4846 / Behavior of gene caused by administration of chemical substance, Gene No. 2026 / Behavior of gene caused by administration of chemical substance, Gene No. 4218 / Behavior of gene caused by administration of chemical substance, Gene No. 6182 / Behavior of gene caused by administration of chemical substance, Gene No. 5600: gene group (A); for Behavior of gene caused by administration of chemical substance, Gene No. 4846: Unigene No. Rn.144554; for Behavior of gene caused by administration of chemical substance, Gene No. 2026 / Behavior of gene caused by administration of chemical substance, Gene No. 4218: Unigene No. Rn.167075; for Behavior of gene caused by administration of chemical substance, Gene No. 6182: Unigene No. Rn.5834; for Behavior of gene caused by administration of chemical substance, Gene No. 5600: Unigene No. Rn.9836; for Behavior of gene caused by administration of chemical substance, Gene No. 1494 / Behavior of gene caused by administration of chemical substance, Gene No. 2045 / Behavior of gene caused by administration of chemical substance, Gene No. 2203: gene group (B); for Behavior of gene caused by administration of chemical substance, Gene No. 1494: Unigene No. Rn.1430; for Behavior of gene caused by administration of chemical substance, Gene No. 2045: Unigene No. Rn.19329; for Behavior of gene caused by administration of chemical substance, Gene No. 2203: Unigene No. Rn.21240; for Behavior of gene caused by administration of chemical substance, Gene No. 533 / Behavior of gene caused by administration of chemical substance, Gene No. 725 / Behavior of gene caused by administration of chemical substance, Gene No. 1163 / Behavior of gene caused by administration of chemical substance, Gene No. 4973 / Behavior of gene caused by administration of chemical substance, Gene No. 4095 / Behavior of gene caused by administration of chemical substance, Gene No. 1334 / Behavior of gene caused by administration of chemical substance, Gene No. 6620 / Behavior of gene caused by administration of chemical substance, Gene No. 6303 / Behavior of gene caused by administration of chemical substance, Gene No. 5878 / Behavior of gene caused by administration of chemical substance, Gene No. 1131 / Behavior of gene caused by administration of chemical substance, Gene No. 1562 / Behavior of gene caused by administration of chemical substance, Gene No. 1741 / Behavior of gene caused by administration of chemical substance, Gene No. 893 / Behavior of gene caused by administration of chemical substance, Gene No. 6026 / Behavior of gene caused by administration of chemical substance, Gene No. 154 / Behavior of gene caused by administration of chemical substance, Gene No. 1993 / Behavior of gene caused by administration of chemical substance, Gene No. 813 / Behavior of gene caused by administration of chemical substance, Gene No. 2494 / Behavior of gene caused by administration of chemical substance, Gene No. 2546 / Behavior of gene caused by administration of chemical substance, Gene No. 3776 / Behavior of gene caused by administration of chemical substance, Gene No. 3929 / Behavior of gene caused by administration of chemical substance, Gene No. 1119 / Behavior of gene caused by administration of chemical substance, Gene No. 6742 / Behavior of gene caused by administration of chemical substance, Gene No. 5634: gene group (C); for Behavior of gene caused by administration of chemical substance, Gene No. 533: Unigene No. Rn.106184; for Behavior of gene caused by administration of chemical substance, Gene No. 725: Unigene No. Rn.108075; for Behavior of gene caused by administration of chemical substance, Gene No. 1163: Unigene No. Rn.11766; for Behavior of gene caused by administration of chemical substance, Gene No. 4973: Unigene No. Rn.118529; for Behavior of gene caused by administration of chemical substance, Gene No. 4095: Unigene No. Rn.119024; for Behavior of gene caused by administration of chemical substance, Gene No. 1334 / Behavior of gene caused by administration of chemical substance, Gene No. 6620: Unigene No. Rn.120914; for Behavior of gene caused by administration of chemical substance, Gene No. 6303: Unigene No. Rn.123063; for Behavior of gene caused by administration of chemical substance, Gene No. 5878: Unigene No. Rn.143213; for Behavior of gene caused by administration of chemical substance, Gene No. 1131: Unigene No. Rn.144946; for Behavior of gene caused by administration of chemical substance, Gene No. 1562: Unigene No. Rn.14744; for Behavior of gene caused by administration of chemical substance, Gene No. 1741: Unigene No. Rn.1647; for Behavior of gene caused by administration of chemical substance, Gene No. 893: Unigene No. Rn.164817; for Behavior of gene caused by administration of chemical substance, Gene No. 6026: Unigene No. Rn.167685; for Behavior of gene caused by administration of chemical substance, Gene No. 154: Unigene No. Rn.185941; for Behavior of gene caused by administration of chemical substance, Gene No. 1993: Unigene No. Rn.18728; for Behavior of gene caused by administration of chemical substance, Gene No. 813: Unigene No. Rn.201760; for Behavior of gene caused by administration of chemical substance, Gene No. 2494: Unigene No. Rn.23969; for Behavior of gene caused by administration of chemical substance, Gene No. 2546: Unigene No. Rn.24561; for Behavior of gene caused by administration of chemical substance, Gene No. 3776: Unigene No. Rn.43232; for Behavior of gene caused by administration of chemical substance, Gene No. 3929: Unigene No. Rn.4620; for Behavior of gene caused by administration of chemical substance, Gene No. 1119: Unigene No. Rn.9757; for Behavior of gene caused by administration of chemical substance, Gene No. 6742: Unigene No. Rn.9779; for Behavior of gene caused by administration of chemical substance, Gene No. 5634: Unigene No. Rn.9862; for Behavior of gene caused by administration of chemical substance, Gene No. 5726: gene group (D), Unigene No. Rn.9939
Procedure, shortened: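 Oral gavage, once daily × 28 days; male F344 SPF rats, 5 wk, n=4/group; vehicle controls given equal solvent volume. Liver excised day 28, total RNA purified. Significance: ≥1.5× or ≤1/1.5 of vehicle, direction concordant with other carcinogens.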

[2] = test system: rodent; conditions: classification of the substance (C+/C−); cited from earlier work
[3] = test system: liver; conditions: cited from earlier work
[4] = classification of the substance (M+/M−); cited from earlier work

## O=C(OC[C@H]1O[C@@H](OC(=O)c2cc(O)c(O)c(OC(=O)c3cc(O)c(O)c(O)c3)c2)[C@H](OC(=O)c2cc(O)c(O)c(OC(=O)c3cc(O)c(O)c(O)c3)c2)[C@@H](OC(=O)c2cc(O)c(O)c(OC(=O)c3cc(O)c(O)c(O)c3)c2)[C@@H]1OC(=O)c1cc(O)c(O)c(OC(=O)c2cc(O)c(O)c(O)c2)c1)c1cc(O)c(O)c(OC(=O)c2cc(O)c(O)c(O)c2)c1 [TS052, Tannic acid]
[1]
  Behavior of gene caused by administration of chemical substance, Gene No. 4846: −
  Behavior of gene caused by administration of chemical substance, Gene No. 2026: −
  Behavior of gene caused by administration of chemical substance, Gene No. 4218: −
  Behavior of gene caused by administration of chemical substance, Gene No. 6182: −
  Behavior of gene caused by administration of chemical substance, Gene No. 5600: −
  Behavior of gene caused by administration of chemical substance, Gene No. 1494: −
  Behavior of gene caused by administration of chemical substance, Gene No. 2045: −
  Behavior of gene caused by administration of chemical substance, Gene No. 2203: +
  Behavior of gene caused by administration of chemical substance, Gene No. 533: −
  Behavior of gene caused by administration of chemical substance, Gene No. 725: −
  Behavior of gene caused by administration of chemical substance, Gene No. 1163: +
  Behavior of gene caused by administration of chemical substance, Gene No. 4973: −
  Behavior of gene caused by administration of chemical substance, Gene No. 4095: −
  Behavior of gene caused by administration of chemical substance, Gene No. 1334: −
  Behavior of gene caused by administration of chemical substance, Gene No. 6620: −
  Behavior of gene caused by administration of chemical substance, Gene No. 6303: −
  Behavior of gene caused by administration of chemical substance, Gene No. 5878: −
  Behavior of gene caused by administration of chemical substance, Gene No. 1131: −
  Behavior of gene caused by administration of chemical substance, Gene No. 1562: −
  Behavior of gene caused by administration of chemical substance, Gene No. 1741: −
  Behavior of gene caused by administration of chemical substance, Gene No. 893: −
  Behavior of gene caused by administration of chemical substance, Gene No. 6026: −
  Behavior of gene caused by administration of chemical substance, Gene No. 154: −
  Behavior of gene caused by administration of chemical substance, Gene No. 1993: −
  Behavior of gene caused by administration of chemical substance, Gene No. 813: −
  Behavior of gene caused by administration of chemical substance, Gene No. 2494: −
  Behavior of gene caused by administration of chemical substance, Gene No. 2546: −
  Behavior of gene caused by administration of chemical substance, Gene No. 3776: −
  Behavior of gene caused by administration of chemical substance, Gene No. 3929: −
  Behavior of gene caused by administration of chemical substance, Gene No. 1119: −
  Behavior of gene caused by administration of chemical substance, Gene No. 6742: −
  Behavior of gene caused by administration of chemical substance, Gene No. 5634: −
  Behavior of gene caused by administration of chemical substance, Gene No. 5726: −
[2]
  Carcinogenicity: C+
[3]; in vivo
  Liver carcinogenicity: Cr+
[4]
  Mutagenicity by Ames test: M−

## ClC(Cl)C(Cl)(Cl)Cl [TS055, Pentachloroethane]
[1]; mRNA vs vehicle control group
  Behavior of gene caused by administration of chemical substance, Gene No. 4846: −
  Behavior of gene caused by administration of chemical substance, Gene No. 2026: −
  Behavior of gene caused by administration of chemical substance, Gene No. 4218: −
  Behavior of gene caused by administration of chemical substance, Gene No. 6182: −
  Behavior of gene caused by administration of chemical substance, Gene No. 5600: −
  Behavior of gene caused by administration of chemical substance, Gene No. 1494: +
  Behavior of gene caused by administration of chemical substance, Gene No. 2045: −
  Behavior of gene caused by administration of chemical substance, Gene No. 2203: −
  Behavior of gene caused by administration of chemical substance, Gene No. 533: +
  Behavior of gene caused by administration of chemical substance, Gene No. 725: −
  Behavior of gene caused by administration of chemical substance, Gene No. 1163: +
  Behavior of gene caused by administration of chemical substance, Gene No. 4973: +
  Behavior of gene caused by administration of chemical substance, Gene No. 4095: +
  Behavior of gene caused by administration of chemical substance, Gene No. 1334: +
  Behavior of gene caused by administration of chemical substance, Gene No. 6620: +
  Behavior of gene caused by administration of chemical substance, Gene No. 6303: +
  Behavior of gene caused by administration of chemical substance, Gene No. 5878: +
  Behavior of gene caused by administration of chemical substance, Gene No. 1131: +
  Behavior of gene caused by administration of chemical substance, Gene No. 1562: +
  Behavior of gene caused by administration of chemical substance, Gene No. 1741: +
  Behavior of gene caused by administration of chemical substance, Gene No. 893: +
  Behavior of gene caused by administration of chemical substance, Gene No. 6026: +
  Behavior of gene caused by administration of chemical substance, Gene No. 154: +
  Behavior of gene caused by administration of chemical substance, Gene No. 1993: +
  Behavior of gene caused by administration of chemical substance, Gene No. 813: +
  Behavior of gene caused by administration of chemical substance, Gene No. 2494: +
  Behavior of gene caused by administration of chemical substance, Gene No. 2546: +
  Behavior of gene caused by administration of chemical substance, Gene No. 3776: +
  Behavior of gene caused by administration of chemical substance, Gene No. 3929: +
  Behavior of gene caused by administration of chemical substance, Gene No. 1119: +
  Behavior of gene caused by administration of chemical substance, Gene No. 6742: +
  Behavior of gene caused by administration of chemical substance, Gene No. 5634: +
  Behavior of gene caused by administration of chemical substance, Gene No. 5726: +
[2]
  Carcinogenicity: C+
[3]; classification of the substance (Cr+/Cr−)
  Liver carcinogenicity: Cr−
[4]
  Mutagenicity by Ames test: M−
